ChEMBL document CHEMBL5154726, “Identification of triazolopyridine derivatives as a new class of AhR agonists and evaluation of anti-psoriasis effect in a mouse model” (Eur J Med Chem, 2022)
In brackets after ≈: the same amount, converted by molar mass. Activity calls are given as the source filed them. The calls are words filed in the database; no cut-off is given here.

Experiments:
[1] = biological target: T1, Aryl hydrocarbon receptor (Homo sapiens, UniProt P35869); experiment: Agonist activity at AhR in human recombinant HepG2-Lucia AhR cell incubated for 24 hrs by luciferase reporter gene assay; format: cell-based
T1 sequence (P35869 whole entry): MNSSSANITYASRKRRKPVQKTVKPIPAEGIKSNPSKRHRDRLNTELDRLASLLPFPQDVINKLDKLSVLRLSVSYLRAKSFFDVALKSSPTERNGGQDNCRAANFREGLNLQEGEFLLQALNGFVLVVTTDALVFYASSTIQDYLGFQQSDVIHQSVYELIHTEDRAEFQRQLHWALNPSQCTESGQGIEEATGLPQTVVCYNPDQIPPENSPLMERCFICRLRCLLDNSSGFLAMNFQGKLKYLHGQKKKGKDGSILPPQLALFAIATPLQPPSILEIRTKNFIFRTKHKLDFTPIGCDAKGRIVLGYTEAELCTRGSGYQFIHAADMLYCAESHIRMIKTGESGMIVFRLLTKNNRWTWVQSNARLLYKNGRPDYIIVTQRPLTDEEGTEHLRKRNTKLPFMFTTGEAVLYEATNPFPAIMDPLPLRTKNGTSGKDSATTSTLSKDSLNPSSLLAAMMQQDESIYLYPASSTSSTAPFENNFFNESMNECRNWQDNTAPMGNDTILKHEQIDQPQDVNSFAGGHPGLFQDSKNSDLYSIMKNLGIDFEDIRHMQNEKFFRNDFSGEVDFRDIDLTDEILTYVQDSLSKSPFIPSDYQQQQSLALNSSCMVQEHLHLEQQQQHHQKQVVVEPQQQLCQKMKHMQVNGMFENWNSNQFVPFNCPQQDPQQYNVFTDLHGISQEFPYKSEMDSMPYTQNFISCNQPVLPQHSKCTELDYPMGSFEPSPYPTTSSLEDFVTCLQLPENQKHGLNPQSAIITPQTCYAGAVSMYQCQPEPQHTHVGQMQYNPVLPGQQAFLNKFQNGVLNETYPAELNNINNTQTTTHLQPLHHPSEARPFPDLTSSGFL

[2] = Solubility of the compound incubated for 48 hrs under shaking condition by LC/MS analysis; format: physicochemical
[3] = biological target: T1, Aryl hydrocarbon receptor; experiment: Induction of Ahr nuclear translocation from cytoplasm to nucleus in human HaCaT cells at 0.01 uM incubated for 1 hr by Western blot analysis; format: cell-based
[4] = biological target: T1, Aryl hydrocarbon receptor; experiment: Induction of Ahr nuclear translocation in human HaCaT cells at 10 uM incubated for 90 mins by immunofluorescence analysis; format: cell-based; conditions: 1.5 h
[5] = Cytotoxicity against human BEAS-2B cells assessed as reduction in cell viability measured after 72 hrs by MTT assay; format: toxicity, cell-based
[6] = Cytotoxicity against human HUVEC cells assessed as reduction in cell viability measured after 72 hrs by MTT assay; format: toxicity, cell-based
[7] = Cytotoxicity against human LX2 cells assessed as reduction in cell viability measured after 72 hrs by MTT assay; format: toxicity, cell-based, LX-2
[8] = biological target: Voltage-gated inwardly rectifying potassium channel KCNH2 (Homo sapiens, UniProt Q12809); experiment: Inhibition of hERG channel in HEK293 cells by whole-cell patch clamp assay; format: toxicity, cell-based
Chain of Voltage-gated inwardly rectifying potassium channel KCNH2 (Q12809 whole entry): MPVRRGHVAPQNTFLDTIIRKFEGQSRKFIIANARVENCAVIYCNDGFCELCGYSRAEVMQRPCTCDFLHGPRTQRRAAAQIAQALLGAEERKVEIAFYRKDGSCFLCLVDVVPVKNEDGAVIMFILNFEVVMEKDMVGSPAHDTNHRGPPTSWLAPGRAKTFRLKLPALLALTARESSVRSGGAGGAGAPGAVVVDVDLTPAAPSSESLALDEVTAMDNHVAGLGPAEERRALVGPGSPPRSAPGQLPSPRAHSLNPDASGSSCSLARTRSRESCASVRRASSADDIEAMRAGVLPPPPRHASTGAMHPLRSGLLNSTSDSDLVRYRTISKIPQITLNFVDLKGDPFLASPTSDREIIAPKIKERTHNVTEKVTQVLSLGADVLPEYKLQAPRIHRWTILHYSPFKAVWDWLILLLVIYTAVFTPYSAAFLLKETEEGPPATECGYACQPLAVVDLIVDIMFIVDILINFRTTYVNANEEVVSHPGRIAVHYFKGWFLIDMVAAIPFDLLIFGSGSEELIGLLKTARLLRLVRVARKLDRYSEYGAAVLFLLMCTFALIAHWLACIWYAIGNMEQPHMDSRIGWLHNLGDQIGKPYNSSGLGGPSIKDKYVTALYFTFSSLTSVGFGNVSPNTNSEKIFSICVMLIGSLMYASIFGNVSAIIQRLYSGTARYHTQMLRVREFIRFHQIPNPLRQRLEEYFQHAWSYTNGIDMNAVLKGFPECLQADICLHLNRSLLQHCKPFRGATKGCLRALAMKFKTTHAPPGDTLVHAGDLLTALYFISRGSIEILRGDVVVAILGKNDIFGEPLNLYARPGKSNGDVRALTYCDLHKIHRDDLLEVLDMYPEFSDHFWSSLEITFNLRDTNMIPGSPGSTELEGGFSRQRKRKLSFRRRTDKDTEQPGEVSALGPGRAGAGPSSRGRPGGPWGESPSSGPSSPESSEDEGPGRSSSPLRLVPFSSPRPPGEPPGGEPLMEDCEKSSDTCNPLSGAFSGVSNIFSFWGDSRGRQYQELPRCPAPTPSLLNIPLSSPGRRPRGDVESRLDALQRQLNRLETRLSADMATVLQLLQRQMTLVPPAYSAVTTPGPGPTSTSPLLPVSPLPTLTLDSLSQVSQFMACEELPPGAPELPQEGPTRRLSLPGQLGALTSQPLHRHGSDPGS

[9] = Cmax in Sprague-Dawley rat at 10 mg/kg, po measured up to 24 hrs by LC-MS/MS analysis; format: ADME, organism-based; set-up: time < 24 hrs, dose 10 mg/kg, route po; conditions: in vivo
[10] = AUC (0 to t) in Sprague-Dawley rat at 5 mg/kg, iv measured up to 24 hrs by LC-MS/MS analysis; format: ADME, organism-based; set-up: dose 5 mg/kg, time < 24 hrs, route iv; conditions: in vivo
[11] = AUC (0 to t) in Sprague-Dawley rat at 10 mg/kg, po measured up to 24 hrs by LC-MS/MS analysis; format: ADME, organism-based; set-up: dose 10 mg/kg, time < 24 hrs, route po; conditions: in vivo
[12] = AUC (0 to infinity) in Sprague-Dawley rat at 5 mg/kg, iv measured up to 24 hrs by LC-MS/MS analysis; format: ADME, organism-based; set-up: dose 5 mg/kg, time < 24 hrs, route iv; conditions: in vivo
[13] = AUC (0 to infinity) in Sprague-Dawley rat at 10 mg/kg, po measured up to 24 hrs by LC-MS/MS analysis; format: ADME, organism-based; set-up: time < 24 hrs, dose 10 mg/kg, route po; conditions: in vivo
[14] = MRT in Sprague-Dawley rat at 5 mg/kg, iv measured up to 24 hrs by LC-MS/MS analysis; format: ADME, organism-based; conditions: in vivo
[15] = Half life in Sprague-Dawley rat at 5 mg/kg, iv measured up to 24 hrs by LC-MS/MS analysis; format: ADME, organism-based; conditions: in vivo
[16] = Clearance in Sprague-Dawley rat at 5 mg/kg, iv measured up to 24 hrs by LC-MS/MS analysis; format: ADME, organism-based; conditions: in vivo
[17] = Volume of distribution at steady state in Sprague-Dawley rat at 5 mg/kg, iv measured up to 24 hrs by LC-MS/MS analysis; format: ADME, organism-based; conditions: in vivo, read-out: Vdss
Cytochrome P450 2C9 = Cytochrome P450 2C9 (Homo sapiens, UniProt P11712); experiment: Inhibition of CYP2C9 in human liver microsomes in presence of NADPH by LC-MS/MS analysis; format: ADME, Microsome
Chain of Cytochrome P450 2C9 (P11712 whole entry): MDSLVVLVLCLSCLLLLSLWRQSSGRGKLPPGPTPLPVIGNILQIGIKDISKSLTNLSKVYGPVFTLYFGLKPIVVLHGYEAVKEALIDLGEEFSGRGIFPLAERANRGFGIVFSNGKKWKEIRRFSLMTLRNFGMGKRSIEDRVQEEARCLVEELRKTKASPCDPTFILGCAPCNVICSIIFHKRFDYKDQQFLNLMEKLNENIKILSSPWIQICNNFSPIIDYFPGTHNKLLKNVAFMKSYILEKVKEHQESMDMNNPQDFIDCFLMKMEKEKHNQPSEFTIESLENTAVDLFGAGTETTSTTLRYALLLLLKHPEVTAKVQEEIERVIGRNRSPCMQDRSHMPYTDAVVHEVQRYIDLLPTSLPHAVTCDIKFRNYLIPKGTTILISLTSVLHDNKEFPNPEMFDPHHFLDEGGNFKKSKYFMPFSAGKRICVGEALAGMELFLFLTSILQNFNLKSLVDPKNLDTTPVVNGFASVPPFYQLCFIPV

Cytochrome P450 3A4 = Cytochrome P450 3A4 (Homo sapiens, UniProt P08684); experiment: Inhibition of CYP3A4 in human liver microsomes in presence of NADPH by LC-MS/MS analysis; format: ADME, Microsome
Chain of Cytochrome P450 3A4 (P08684 whole entry): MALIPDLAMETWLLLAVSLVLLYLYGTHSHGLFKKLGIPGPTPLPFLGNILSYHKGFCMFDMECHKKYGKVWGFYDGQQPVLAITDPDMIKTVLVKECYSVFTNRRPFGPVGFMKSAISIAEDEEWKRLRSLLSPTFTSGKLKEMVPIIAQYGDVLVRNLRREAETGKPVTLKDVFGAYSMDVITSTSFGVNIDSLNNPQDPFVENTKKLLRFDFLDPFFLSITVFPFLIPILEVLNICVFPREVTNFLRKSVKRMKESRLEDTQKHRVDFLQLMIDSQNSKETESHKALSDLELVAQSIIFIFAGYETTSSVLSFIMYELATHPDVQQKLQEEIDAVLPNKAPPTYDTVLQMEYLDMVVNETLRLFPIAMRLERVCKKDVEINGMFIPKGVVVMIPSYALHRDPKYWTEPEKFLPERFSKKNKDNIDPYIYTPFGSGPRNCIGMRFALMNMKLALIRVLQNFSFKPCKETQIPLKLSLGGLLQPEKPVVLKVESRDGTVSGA

Mus musculus [18] = experiment: Anti-psoriatic activity in IMQ-induced BALB/c psoriasis mouse model assessed as reduction in IL-17a expression at 0.1 to 1 % treated topically by qRT-PCR analysis; format: functional, organism-based; conditions: dose 0.1-1 %
Mus musculus [19] = experiment: Anti-psoriatic activity in IMQ-induced BALB/c psoriasis mouse model assessed as reduction in IL-17a expression at 5 to 20 mg/kg, po by qRT-PCR analysis; format: functional, organism-based; conditions: dose 5-20 mg/kg
Mus musculus [20] = experiment: Anti-psoriatic activity in IMQ-induced BALB/c psoriasis mouse model assessed as reduction in IL-17f expression at 5 to 20 mg/kg, po by qRT-PCR analysis; format: functional, organism-based; conditions: dose 5-20 mg/kg

- EC50 [1]: 0.03 nM
- solubility thermodynamic at 48 h [2]: 17.2 µg/mL (≈ 48.6 µM)
- Activity [3]: Active
- Activity [4]: Active
- Cmax [9]: 685 ng/mL
- AUC(0-t) at 24 h [10]: 4640 ng·h/mL
- AUC(0-t) at 24 h [11]: 1400 ng·h/mL
- AUC(0-inf) [12]: 4640 ng·h/mL
- AUC(0-inf) [13]: 1420 ng·h/mL
- MRT [14]: 53.4 min
- half-life [15]: 48.6 min
- clearance [16]: 19 mL/min/kg
- Vd [17]: 1.02 L/kg
- IC50 (Cytochrome P450 2C9): > 10 µM
- IC50 (Cytochrome P450 3A4): > 10 µM
SMILES: Brc1ccc(-c2nc3ccc(Br)cn3n2)cc1
- IC50 at 72 h [5]: > 300 µM
- IC50 at 72 h [6]: > 300 µM
- IC50 at 72 h [7]: > 300 µM
- IC50 [8]: > 10 µM
- Activity (Mus musculus [18]): Active
- Activity (Mus musculus [19]): Active
- Activity (Mus musculus [20]): Active
